# Assay results as given in patent US6984640B1, “Antiparasitic artemisinin derivatives (endoperoxides)” (Bayer Aktiengesellschaft, priority 1998, dated 2006).
# Assays:
# Neospora caninum = experiment: Screening against Neospora caninum cell cultures in vitro (VERO or ED host cells); format: cell-based; set-up: key: 0 = no effect monolayer completely destroyed; 1 = weak effect monolayer partly destroyed, parasite clumps can be seen; 2 = full effect monolayer intact, no tachyzoites observable; T = cytotoxic cells are dead, lysed; conditions: microscopic evaluation 4 days after treatment
# Protocol: Screening was conducted in 96-well plates (Falcon 3872). A monolayer of host cells (VERO or ED) were placed on a cell culture plate. Non-infected mono-layers of cells were cultured in two 50 ml tissue culture bottles ([…] cell culture area). The cell layer was detached with trypsin-EDTA (5 ml. Gibco 45300-019) in a CO2-culture cupboard at 37° C. After 10 minutes, most of the cells were detached. The cells were transferred with a 5 ml pipette into a 50 ml centrifuge tube (Greiner, B769331) containing about 1 ml warmed fetal calf serum. After centrifugation for 5 minutes at 1500 rpm (Varifuge 3.0, Heraeus), the liquid was removed and the cell pellet suspended in RPMI medium (100 ml, 95% RPMI 1640, 2% FCS, 1% L-glutamine, 1% sodium hydrogen carbonate, 1% penicillin/streptomycin). The cell suspension was pipetted into six 96-well plates at 150 μl per well. The coated cell culture plates were placed in an incubation cupboard at 37° C. under 5% CO2 for 24 hours. The cells were then infected with Neospora caninum tachyzoites at a concentration of 48,000 tachyzoites per well. This was followed by incubation at 37° C. under 5% CO2 for 24 hours.
# The test compounds (0.5-1.5 mg) were weighed into 1.5 ml eppendorf vessels and dissolved in 1 ml dimethyl sulphoxide, corresponding to a dilution of about 1×10^−3 g ml^−1. The medium used for further dilution consisted of 87% RPMI 1640, 10% FCS, 1% L-glutamine, 1% sodium hydrogen carbonate, 1% penicillin/streptomycin. In the first screening, concentrations of […], […] and 10^−7 g ml^−1 were used. The diluted preparations were then transferred to the cell culture plates at a volume of 150 μl per well after 24 hour infection with Neospora caninum. For the first row, untreated medium was used; this row contained infected and uninfected cells as controls. The cell plate was incubated at 37° C. under 5% CO2 for 5 days. Microscopic evaluation was conducted 4 days after treatment and 5 days after infection at a magnification of 25×10 in an inverse microscope according to the following evaluation scheme.
# Eimeria tenella = experiment: Screening against Eimeria tenella cell cultures in vitro (chick kidney cells); format: cell-based; set-up: key: 3 = very active no intact parasites/well; 2 = active 1-6 parasites per well; 1 = weakly active up to 1 intact schizont/optical field of vision; 0 = inactive >1 intact schizont/optical field of vision; T = cytotoxic host cells are dead; conditions: day 5 post infection
# Protocol: Cells from kidneys of 19 day old chicks are cultured as monolayers in 96-well plates (Falcon 3872) in a medium of Hanks lactalbumine hydrolysate, 5% fetal calf serum, 1% glutamine and 1% non-essential amino acids. After two days at 42° C. under 5% CO2, the culture was infected with excised sporozoites of Eimeria tenella at about […] per well. Test compounds were dissolved in DKSO and diluted with culture medium to a maximum end concentration of 10 μg ml^−1. The dilution steps were 1:10. On day 5 post infection, the cultures were evaluated under a microscope at 100-fold magnification and the condition of the host cells and the amount of intact schizonts and free merozoites was determined.
# [1] = tested on: Plasmodium falciparum W2 strain (chloroquine resistant); experiment: In vitro screening against Plasmodium falciparum, 3H-hypoxanthine incorporation, W2 strain; format: cell-based; conditions: for In vitro activity: (IC10) / In vitro activity: IC50 / In vitro activity: IC90: 66 hours incubation
# Excerpt: (§1) Two parasite strains—W2 resistant to chloroquine, and D6 sensitive to chloroquine but resistant to mefloquine were used. In Table IV below, the best compounds should show no cross resistance between the two strains.
# (§2) The assay relies on incorporation of radiolabelled hypoxanthine by the parasite and inhibition of incorporation is attributed to activity of known or candidate antimalarial drugs. For each assay, proven antimalarials such as chloroquine, mefloquine, quinine, artemisinin and pyrimethamine were used as controls. The incubation period was 66 hours, and the starting parasitemia was 0.2% with 1% hematocrit. The medium was an RPMI-1640 culture with no folate or p-aminobenzoic acid. Albumax rather than 10% normal heat inactivated human plasma was used as, with Albumax, less protein binding is observed, and compounds elicit slightly higher activities in this model. If a compound was submitted with no prior knowledge of activity, it was dissolved directly in dimethyl sulphoxide (DMSO), and diluted 400 fold with complete culture medium. The unknown compound was started at a maximum concentration of 50,000 ng ml^−1 and sequentially diluted 2-fold for 11 times to give a concentration range of […]. These dilutions were performed automatically by a Biomek 1000 Liquid Handling System in 96-well microtiter plates. The diluted drugs were then transferred to test plates, 200 μl of parasitized erythrocytes were added, and incubated at 37° C. in a controlled environment of 5% CO2, 5% O2 and 90% N2. After 42 hours, 25 μl of ^3H-hypoxanthine was added, and the plates incubated for an additional 24 hours. After 66 hours, the plates were frozen at −70° C. to lyse the red cells, and then thawed and harvested onto glass fiber filter mats in a 96-well harvester. The filter mats were then counted in a scintillation counter. For each drug, the concentration response profile was determined and 50%, 90% and 10% inhibitory concentrations (IC50 IC90 and IC10) were determined by a non-linear logistic dose response analysis program.
# (§3) A prescreen format can be used wherein a 3-dilution assay may be used to determine activity at high medium or low concentrations. The concentrations were selected as 50,000, 500 and 50 ng ml^−1. These were performed in duplicate on a 96-well format plate with 14 test compounds and one known (standard) compound per plate. The system was automated with a Biomek diluter for mixing and diluting the drugs, and adding drugs and parasites to a test plate. In the prescreen format, if the ANALYSIS FIELD (AP) has a “<”, then the compound was “very active” and the IC values are most likely to be below the last dilution value (in nanograms/ml), which is listed next to AF. In most cases, these compounds were run again at lower starting concentration to determine the true IC value. If the AF has a “>”, then the IC value is greater than the prescreen dilution value; thus “AF>250” means that the IC value is greater than 250 ng ml^−1 and no further screening is carried out. In such cases, values of 0.00 are entered for IC values.
# [2] = tested on: Plasmodium falciparum D6 strain (chloroquine sensitive); experiment: In vitro screening against Plasmodium falciparum, 3H-hypoxanthine incorporation, D6 strain; format: cell-based; conditions: for In vitro activity: (IC10) / In vitro activity: IC50 / In vitro activity: IC90: 66 hours incubation
# Excerpt: as §1, §2, §3
# Neospora = conditions: administered via drinking water; cited from earlier work
# [3] = prescreen 3-dilution assay, 0.00 entered for IC values
SMILES,Evaluation of effect against Neospora caninum (Neospora caninum; Dose 10^−5 g/ml),Evaluation of effect against Neospora caninum (Neospora caninum; Dose 10^−6 g/ml),Evaluation of effect against Neospora caninum (Neospora caninum; Dose 10^−7 g/ml),Effectiveness rating against Eimeria tenella (Eimeria tenella; Dose 10^−5 g/ml),Effectiveness rating against Eimeria tenella (Eimeria tenella; Dose 10^−6 g/ml),Effectiveness rating against Eimeria tenella (Eimeria tenella; Dose 10^−7 g/ml),Effectiveness rating against Eimeria tenella (Eimeria tenella; Dose 10^−8 g/ml),In vitro activity: (IC10) [1],In vitro activity: IC50 [1],In vitro activity: IC90 [1],In vitro activity: (IC10) [2],In vitro activity: IC50 [2],In vitro activity: IC90 [2],Evaluation of effect against Neospora caninum (Neospora caninum; Dose 10^−8 g/ml),"ANALYSIS FIELD (AF): bound on the IC values in prescreen format [1, 3]","ANALYSIS FIELD (AF): bound on the IC values in prescreen format [2, 3]",efficacy against neosporosis in experimentally infected mice (Neospora)
CC1CCC2C(C)C(Nc3ccc(Br)cc3)OC3OC4(C)CCC1C32OO4 (stereo not drawn) [Example 18],2,1,0,T,T,1 (1 = weakly active up to 1 intact schizont/optical field of vision),0 (0 = inactive >1 intact schizont/optical field of vision),0.17 ng/mL,0.23 ng/mL,0.33 ng/mL,0.09 ng/mL,0.28 ng/mL,0.82 ng/mL,–,–,–,–
CC1CCC2C(C)C(Nc3ccc(I)cc3)OC3OC4(C)CCC1C32OO4 (stereo not drawn) [Example 19],T,0,–,T,T,1 (1 = weakly active up to 1 intact schizont/optical field of vision),0 (0 = inactive >1 intact schizont/optical field of vision),0.25 ng/mL,0.33 ng/mL,0.43 ng/mL,0.19 ng/mL,0.39 ng/mL,0.80 ng/mL,–,–,–,–
CC1CCC2C(C)C(Nc3ccc(-c4ccccc4)cc3)OC3OC4(C)CCC1C32OO4 (stereo not drawn) [Example 20],–,1,1,T,–,0 (0 = inactive >1 intact schizont/optical field of vision),–,2.64 ng/mL,5.81 ng/mL,12.77 ng/mL,6.84 ng/mL,9.40 ng/mL,12.93 ng/mL,0,–,–,–
CC1CCC2C(C)C(NCc3cc(C(F)(F)F)cc(C(F)(F)F)c3)OC3OC4(C)CCC1C32OO4 (stereo not drawn) [Example 23],–,0,–,T,–,0 (0 = inactive >1 intact schizont/optical field of vision),–,–,–,–,–,–,–,–,0.00; 0.00; AF > 250 ng/ml,0.00; 0.00; AF > 250 ng/ml,–
CCCNC1OC2OC3(C)CCC4C(C)CCC(C1C)C24OO3 (stereo not drawn) [Example 24],1,0,–,2 (2 = active 1-6 parasites per well),1 (1 = weakly active up to 1 intact schizont/optical field of vision),0 (0 = inactive >1 intact schizont/optical field of vision),–,0.46 ng/mL,0.77 ng/mL,1.30 ng/mL,0.65 ng/mL,1.17 ng/mL,2.10 ng/mL,–,–,–,–
CC1CCC2C(C)C(N3CCOCC3)OC3OC4(C)CCC1C32OO4 (stereo not drawn) [Example 25],–,1,1,2 (2 = active 1-6 parasites per well),1 (1 = weakly active up to 1 intact schizont/optical field of vision),1 (1 = weakly active up to 1 intact schizont/optical field of vision),0 (0 = inactive >1 intact schizont/optical field of vision),0.07 ng/mL,0.11 ng/mL,0.17 ng/mL,0.02 ng/mL,0.09 ng/mL,0.35 ng/mL,0,–,–,–
Nc1ccc(S(=O)(=O)Nc2ncccn2)cc1 [Sulfadiazin],–,–,–,–,–,–,–,–,–,–,–,–,–,–,–,–,"effective in experimentally infected mice, only if the treatment was prophylactic"
